{"source": "patent US9364479B2", "about": "“Use of a receptor-type kinase modulator for treating polycystic kidney disease” (SYMPHONY EVOLUTION, INC., priority 2010, dated 2016)", "key": {"[1]": {"tested_on": "BT474 human tumor xenograft", "experiment": "BT474 xenograft, tumor growth", "assay_type": "in vivo", "conditions": "Mus musculus", "protocol": "The response of tumors to treatment was determined by comparing the mean tumor weight of the treatment group with the appropriate control group. Percentage inhibition of tumor growth was determined with the following formula: Percentage inhibition=100×[1−(Xf−Xo)/(Yf−Yo)], where Xf and Yf are the mean tumor weights of the treatment and control groups, respectively, on day f, and Xo and Yo are the mean tumor weights of treatment and control groups respectively, on day zero (staged tumor weights after grouping)"}, "EGFR": {"target": "T1, EGFR (Homo sapiens, UniProt P00533)", "T1 construct": "residues H672-A1210 of human EGFR, Proqinase; purchased Proqinase", "T1 sequence (P00533 672-1210)": "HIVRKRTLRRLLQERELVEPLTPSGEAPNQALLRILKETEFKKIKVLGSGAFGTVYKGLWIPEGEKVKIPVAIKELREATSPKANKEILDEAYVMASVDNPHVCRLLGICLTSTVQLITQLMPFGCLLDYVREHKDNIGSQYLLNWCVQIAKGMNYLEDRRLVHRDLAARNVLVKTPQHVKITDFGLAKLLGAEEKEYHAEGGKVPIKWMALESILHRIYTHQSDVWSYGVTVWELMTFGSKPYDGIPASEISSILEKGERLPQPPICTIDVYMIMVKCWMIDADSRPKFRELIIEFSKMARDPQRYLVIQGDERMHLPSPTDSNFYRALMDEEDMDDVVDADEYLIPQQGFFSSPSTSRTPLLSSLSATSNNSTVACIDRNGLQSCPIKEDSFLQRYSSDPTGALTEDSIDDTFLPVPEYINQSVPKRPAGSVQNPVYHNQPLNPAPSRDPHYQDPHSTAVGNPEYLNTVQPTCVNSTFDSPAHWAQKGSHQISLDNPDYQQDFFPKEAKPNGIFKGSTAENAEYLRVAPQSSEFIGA", "experiment": "Luciferase-coupled chemiluminescence kinase assay", "assay_type": "biochemical", "conditions": "ATP at Km"}, "[2]": {"tested_on": "Potassium Channel, ATP-Sensitive", "experiment": "NovaScreen assay", "assay_type": "binding"}, "KDR [3]": {"target": "T2, KDR (Homo sapiens, UniProt P35968)", "T2 sequence (P35968 807-1356)": "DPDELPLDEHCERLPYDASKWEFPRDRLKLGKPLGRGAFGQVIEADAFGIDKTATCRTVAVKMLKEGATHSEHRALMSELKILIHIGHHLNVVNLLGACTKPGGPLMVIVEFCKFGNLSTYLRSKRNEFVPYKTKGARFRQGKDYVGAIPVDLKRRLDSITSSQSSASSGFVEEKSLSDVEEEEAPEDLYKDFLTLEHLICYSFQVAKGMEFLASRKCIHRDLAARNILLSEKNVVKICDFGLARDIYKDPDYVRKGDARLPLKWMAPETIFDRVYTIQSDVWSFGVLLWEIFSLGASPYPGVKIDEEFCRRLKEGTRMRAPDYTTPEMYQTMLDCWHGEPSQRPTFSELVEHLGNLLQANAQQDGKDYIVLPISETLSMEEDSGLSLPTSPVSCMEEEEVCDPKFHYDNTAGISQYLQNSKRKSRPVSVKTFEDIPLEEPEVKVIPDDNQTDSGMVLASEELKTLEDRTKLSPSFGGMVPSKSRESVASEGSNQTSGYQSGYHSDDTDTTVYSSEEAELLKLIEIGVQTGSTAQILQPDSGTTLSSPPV", "experiment": "Luciferase-coupled chemiluminescence kinase assay", "assay_type": "biochemical", "parameters": "residues D807-V1356 of human KDR, Proqinase; purchased Proqinase", "conditions": "ATP at Km"}, "Src": {"target": "T3, Src (Homo sapiens, UniProt P12931)", "T3 construct": "His (N); purchased Upstate Biotech", "T3 sequence (P12931 whole entry)": "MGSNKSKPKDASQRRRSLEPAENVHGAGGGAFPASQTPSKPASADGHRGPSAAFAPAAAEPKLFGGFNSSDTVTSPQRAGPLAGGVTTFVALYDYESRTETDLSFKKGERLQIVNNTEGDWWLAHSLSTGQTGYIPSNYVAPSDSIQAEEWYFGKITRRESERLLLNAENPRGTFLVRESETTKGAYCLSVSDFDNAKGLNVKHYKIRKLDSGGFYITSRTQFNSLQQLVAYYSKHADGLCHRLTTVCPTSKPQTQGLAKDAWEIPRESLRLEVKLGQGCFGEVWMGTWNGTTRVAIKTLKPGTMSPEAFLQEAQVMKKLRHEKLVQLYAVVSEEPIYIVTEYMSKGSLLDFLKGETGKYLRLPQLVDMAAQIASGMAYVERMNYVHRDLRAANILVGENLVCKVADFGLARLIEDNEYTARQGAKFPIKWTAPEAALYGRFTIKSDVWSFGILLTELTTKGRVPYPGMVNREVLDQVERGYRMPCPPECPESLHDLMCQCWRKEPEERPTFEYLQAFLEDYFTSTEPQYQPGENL", "experiment": "Chemiluminescent kinase assay", "assay_type": "biochemical", "conditions": "ATP at Km"}, "Leukotriene B4, LTB4": {"target": "T4, Leukotriene B4, LTB4 (Homo sapiens, UniProt Q15722)", "T4 construct": "NovaScreen", "T4 sequence (Q15722 whole entry)": "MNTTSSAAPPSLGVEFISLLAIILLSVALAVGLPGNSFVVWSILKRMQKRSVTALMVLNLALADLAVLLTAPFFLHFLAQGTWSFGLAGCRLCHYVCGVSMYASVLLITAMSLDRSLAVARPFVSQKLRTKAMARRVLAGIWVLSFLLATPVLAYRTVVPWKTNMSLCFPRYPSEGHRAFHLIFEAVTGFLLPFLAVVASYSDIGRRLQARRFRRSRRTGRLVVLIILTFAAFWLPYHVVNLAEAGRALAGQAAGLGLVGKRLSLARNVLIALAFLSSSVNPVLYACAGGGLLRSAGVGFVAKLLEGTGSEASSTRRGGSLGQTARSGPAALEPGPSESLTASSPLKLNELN", "experiment": "NovaScreen assay", "assay_type": "binding", "conditions": "read-out: Inhibition, 10 μM XL-647"}, "c-Kit": {"target": "c-Kit (Homo sapiens, UniProt P10721)", "experiment": "AlphaScreen kinase assay", "assay_type": "biochemical", "parameters": "Human, T544-; MgCl2, 3 mM MnCl2, 1 mM; V976, N-GST,; GST (N); purchased ProQinase", "protocol": "An AlphaScreen tyrosine kinase assay was used to measure ErbB2 and Flt-4 activity. Donor beads coated with streptavidin and acceptor beads coated with PY100 anti-phosphotyrosine antibody (Perkin-Elmer) were used. Biotinylated poly(Glu,Tyr) 4:1 was used as the substrate. Substrate phosphorylation was measured by luminescence following donor-acceptor bead addition followed by complex formation. Test compound, 3 μmol/L ATP, 3 nmol/L biotinylated poly(Glu,Tyr) 4:1, and 1 nmol/L ErbB2 (residues Q679-V1255 of human ErbB2, Proqinase) or Flt-4 (residues D725-R1298 of human Flt-4, Proqinase) were combined in a volume of 20 μL Assay Buffer (20 mM TrisHCl, pH 7.5, 10 mM MgCl2, 3 mM MnCl2, 1 mM DTT, 0.01% Triton) in a 384-well white, medium-binding microtiter plate (Greiner). Reaction mixtures were incubated for 1 h at room temperature. Reactions were quenched by addition of 10 μL of 15 to 30 μg/mL AlphaScreen bead suspension containing 75 mmol/L HEPES (pH 7.4), 300 mmol/L NaCl, 120 mmol/L EDTA, 0.3% bovine serum albumin, and 0.03% Tween 20. After 2 to 16 h of incubation at room temperature, plates were read using an AlphaQuest reader (Perkin-Elmer).\nFurther screening was performed using the biochemical assay methods of Example 2. Additional description of the components and concentrations are summarized in Table 8, Table 9, and Table 10, below."}, "EGFR WT (pTet-On/Lx-1)": {"target": "EGFR WT (pTet-On/Lx-1) (Homo sapiens, UniProt P00533)", "sequence (P00533 25-1210)": "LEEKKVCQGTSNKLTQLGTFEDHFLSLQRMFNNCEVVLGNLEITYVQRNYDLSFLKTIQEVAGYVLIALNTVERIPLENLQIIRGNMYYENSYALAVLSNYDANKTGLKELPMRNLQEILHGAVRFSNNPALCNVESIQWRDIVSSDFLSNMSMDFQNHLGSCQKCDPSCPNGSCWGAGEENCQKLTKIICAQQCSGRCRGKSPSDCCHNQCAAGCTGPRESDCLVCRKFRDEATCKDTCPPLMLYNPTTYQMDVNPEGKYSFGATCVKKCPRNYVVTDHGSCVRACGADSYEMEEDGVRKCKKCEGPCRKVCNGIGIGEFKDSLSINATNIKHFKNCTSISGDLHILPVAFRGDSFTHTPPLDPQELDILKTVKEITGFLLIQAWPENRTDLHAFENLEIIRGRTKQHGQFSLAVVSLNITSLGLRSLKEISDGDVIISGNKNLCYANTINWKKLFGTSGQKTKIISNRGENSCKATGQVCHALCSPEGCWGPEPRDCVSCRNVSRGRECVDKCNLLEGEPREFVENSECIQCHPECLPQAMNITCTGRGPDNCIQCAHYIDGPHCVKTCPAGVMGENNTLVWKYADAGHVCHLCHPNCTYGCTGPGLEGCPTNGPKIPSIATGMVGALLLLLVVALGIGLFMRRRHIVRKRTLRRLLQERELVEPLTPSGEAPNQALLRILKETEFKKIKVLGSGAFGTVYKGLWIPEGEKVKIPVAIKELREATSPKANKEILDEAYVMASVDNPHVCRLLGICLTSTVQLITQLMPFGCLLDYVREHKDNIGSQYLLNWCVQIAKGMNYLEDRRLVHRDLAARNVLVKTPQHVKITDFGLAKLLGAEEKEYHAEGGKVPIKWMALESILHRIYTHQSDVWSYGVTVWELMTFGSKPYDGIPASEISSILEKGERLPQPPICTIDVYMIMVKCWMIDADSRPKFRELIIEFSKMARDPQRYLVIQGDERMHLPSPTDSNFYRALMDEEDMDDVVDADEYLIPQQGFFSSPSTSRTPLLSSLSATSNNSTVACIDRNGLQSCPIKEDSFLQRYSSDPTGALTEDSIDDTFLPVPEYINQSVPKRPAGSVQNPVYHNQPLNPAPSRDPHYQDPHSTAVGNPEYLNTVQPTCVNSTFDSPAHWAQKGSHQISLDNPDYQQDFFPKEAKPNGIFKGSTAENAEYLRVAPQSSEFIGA", "experiment": "EGFR phosphorylation ELISA in transfected Lx-1 cells"}, "EGFR WT (pCMV/Lx-1)": {"target": "EGFR WT (pCMV/Lx-1) (Homo sapiens, UniProt P00533)", "sequence (P00533 25-1210)": "as above", "experiment": "EGFR phosphorylation ELISA in transfected Lx-1 cells"}, "Angiotensin II, AT2": {"target": "T5, Angiotensin II, AT2 (Homo sapiens, UniProt P50052)", "T5 construct": "NovaScreen", "T5 sequence (P50052 whole entry)": "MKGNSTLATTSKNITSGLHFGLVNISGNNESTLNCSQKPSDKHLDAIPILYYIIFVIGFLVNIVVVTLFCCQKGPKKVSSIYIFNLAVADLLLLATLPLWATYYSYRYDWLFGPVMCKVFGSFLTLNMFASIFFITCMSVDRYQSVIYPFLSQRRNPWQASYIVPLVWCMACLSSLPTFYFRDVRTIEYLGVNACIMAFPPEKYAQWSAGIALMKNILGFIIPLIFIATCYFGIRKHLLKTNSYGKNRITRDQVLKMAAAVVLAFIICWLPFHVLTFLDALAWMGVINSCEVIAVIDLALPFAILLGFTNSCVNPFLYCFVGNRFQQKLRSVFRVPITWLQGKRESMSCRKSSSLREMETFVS", "experiment": "NovaScreen assay", "assay_type": "binding", "conditions": "read-out: Inhibition, 10 μM XL-647"}, "KDR [4]": {"target": "T2, KDR", "experiment": "Mechanism of action study / Ki determination", "assay_type": "biochemical", "parameters": "residues D807-V1356 of human KDR, Proqinase; purchased Proqinase", "protocol": "Enzymatic activity was measured by standard methods after dilution of the enzyme-inhibitor complex."}}}
{"compound": "COc1cc2c(Nc3ccc(Cl)c(Cl)c3F)ncnc2cc1OC[C@@H]1C[C@@H]2CN(C)C[C@@H]2C1", "note": "[XL-647, N-(3,4-dichloro-2-fluorophenyl)-7-({[(3aR,5r,6aS)-2-methyloctahydrocyclopenta[c]pyrrol-5-yl]methyl}oxy)-6-(methyloxy)quinazolin-4-amine]", "values": [{"measurement": "ED50", "setting": "[1]; BT-474, qd × 14", "result": 9.8, "unit": "mg/kg"}, {"measurement": "ED50", "setting": "[1]; BT-474, qd × 28", "result": 21.9, "unit": "mg/kg"}, {"measurement": "IC50", "setting": "EGFR", "result": "0.3 ± 0.1", "unit": "nM"}, {"measurement": "Inhibition, 10 μM XL-647", "setting": "[2]", "result": 5.02, "unit": "%"}, {"measurement": "IC50", "setting": "KDR [3]", "result": "1.5 ± 0.2", "unit": "nM"}, {"measurement": "IC50", "setting": "Src", "result": "10.3 ± 2", "unit": "nM"}, {"measurement": "inhibition at 10 µM", "setting": "Leukotriene B4, LTB4", "result": 32.2, "unit": "%"}, {"measurement": "IC50", "setting": "c-Kit", "result": "132 ± 8.2", "unit": "nM"}, {"measurement": "IC50", "setting": "EGFR WT (pTet-On/Lx-1)", "result": 5, "unit": "nM"}, {"measurement": "IC50", "setting": "EGFR WT (pCMV/Lx-1)", "result": 12, "unit": "nM"}, {"measurement": "inhibition at 10 µM", "setting": "Angiotensin II, AT2", "result": 16.6, "unit": "%"}, {"measurement": "ATP-Competitive", "setting": "KDR [4]", "result": "Yes"}, {"measurement": "Ki", "setting": "KDR [4]", "result": 0.6, "unit": "nM"}, {"measurement": "Reversible", "setting": "KDR [4]", "result": "Yes"}]}
